Experimental data: patent US20230083973A1, “SUBSTITUTED CYCLOPROPYL-2,2'-BIP[…], ANALOGUES THEREOF, AND METHODS USING SAME” (priority 2019, published 2023)
Where two headings read alike, the source gives them in different places.

Tested on: HBsAg
Test: HBsAg assay: inhibition of HBsAg in HepG2.2.15 cells (chemiluminescence immunoassay of supernatant)
Format: cell-based, hepatitis B virus
Conditions: HBsAg in supernatant at day 6 after exposure to compound, 0.5% DMSO
Outline: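 HepG2.2.15 cells treated with serially diluted compounds (0.5% DMSO), medium and compound refreshed after 2–3 days, supernatant harvested at day 6. Secreted HBsAg measured by chemiluminescence immunoassay; EC50 from dose-response curves, with parallel CellTiter-Glo viability at 5,000 cells/well.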

[1] = read-out: sAg EC50, HepG2.2.15 cells
[2] = Hepatitis B virus, HepG2.2.15, 144 h, read-out: sAg EC50, HepG2.2.15 cells

Compound	EC50 [1] [nM]	EC50 [2] [nM]
Fc1cc(C2CC2c2cnc(-c3ncccn3)nc2)cc(N2CCCC2)c1F (single isomer, unassigned) [Example 93, trans-5-(2-(3,4-Difluoro-5-(pyrrolidin-1-yl)phenyl)cyclopropyl)-2,2′-bipyrimidine]	19	
COc1ccc(C2CC2c2cnc(-c3ncccn3)nc2)c(F)c1 (single isomer, unassigned) [Example 2, trans-5-(2-(2-Fluoro-4-methoxyphenyl)cyclopropyl)-2,2′-bipyrimidine]	230	
Cn1ccc(COc2cc([C@@H]3C[C@H]3c3cnc(-c4ncccn4)nc3)cc(F)c2F)n1 (relative stereo) [Example 219, trans-5-(2-(3,4-Difluoro-5-((1-methyl-1H-pyrazol-3-yl)methoxy)phenyl)cyclopropyl)-2,2′-bipyrimidine]		96
Fc1cc(C2CC2c2cnc(-c3ncccn3)nc2)cc(F)c1F (single isomer, unassigned) [Example 162, trans-5-(2-(3,4,5-Trifluorophenyl)cyclopropyl)-2,2′-bipyrimidine]	160	
Fc1ccc(C2CC2c2cnc(-c3ncccn3)nc2)cc1N1CCC1 (single isomer, unassigned) [Example 82, trans-5-(2-(3-(Azetidin-1-yl)-4-fluorophenyl)cyclopropyl)-2,2′-bipyrimidine]	110	
Fc1cc(Cl)cc(C2CC2c2cnc(-c3ncccn3)nc2)c1 (single isomer, unassigned) [Example 119, trans-5-(2-(3-Chloro-5-fluorophenyl)cyclopropyl)-2,2′-bipyrimidine]	330	
Fc1ccc([C@@H]2C[C@H]2c2ccnc(-c3ncccn3)n2)cc1F (relative stereo) [Example 4, trans-4-(2-(3,4-Difluorophenyl)cyclopropyl)-2,2′-bipyrimidine]		7000
COc1cc(C2CC2c2cnc(-c3ncccn3)nc2)c(F)cc1Cl (single isomer, unassigned) [Example 86, trans-5-(2-(4-Chloro-2-fluoro-5-methoxyphenyl)cyclopropyl)-2,2′-bipyrimidine]		130
COc1cc(C2CC2c2cnc(-c3ncccn3)nc2-c2ccc3nc(C)sc3c2)ccc1F (single isomer, unassigned) [Example 140, trans-6-(5-(2-(4-Fluoro-3-methoxyphenyl)cyclopropyl)-[2,2′-bipyrimidin]-4-yl)-2-methylbenzo[d]thiazole]	37000	
COc1cc([C@@H]2C[C@H]2c2cnc(-c3ncccn3)nc2)ccc1C(F)(F)F (relative stereo) [Example 153, trans-5-(2-(3-Methoxy-4-(trifluoromethyl)phenyl)cyclopropyl)-2,2′-bipyrimidine]		190
CNC(=O)c1cc(C2CC2c2cnc(-c3ncccn3)nc2)ccc1Cl (single isomer, unassigned) [Example 202, trans-5-(2-([2,2′-Bipyrimidin]-5-yl)cyclopropyl)-2-chloro-N-methylbenzamide]	4000	
COC1CN(c2cc([C@@H]3C[C@H]3c3cnc(-c4ncccn4)nc3)cc(F)c2F)C1 (single isomer, unassigned) [Example 122, trans-5-(2-(3,4-difluoro-5-(3-methoxyazetidin-1-yl)phenyl)cyclopropyl)-2,2′-bipyrimidine]	61	
Fc1cc([C@@H]2C[C@H]2c2cnc(-c3ncccn3)nc2)cc(OCc2nccs2)c1F (relative stereo) [Example 218, trans-2-((5-(2-([2,2′-Bipyrimidin]-5-yl)cyclopropyl)-2,3-difluorophenoxy)methyl)thiazole]		57
CN1CC[C@@H](Nc2cc(C3CC3c3cnc(-c4ncccn4)nc3)cc(F)c2F)C1 (single isomer, unassigned) [Example 230]	7000	
Fc1ccc(C2CC2c2cnc(-c3ncccn3)nc2)cc1N1CCCC1 (single isomer, unassigned) [Example 20, trans-5-(2-(4-Fluoro-3-(pyrrolidin-1-yl)phenyl)cyclopropyl)-2,2′-bipyrimidine]	23	
CC(=O)N1CC[C@H](Nc2cc(C3CC3c3cnc(-c4ncccn4)nc3)cc(F)c2F)C1 (single isomer, unassigned) [Example 225]	350	
Fc1cc([C@@H]2C[C@H]2c2cnc(-c3ncccn3)nc2)cc(F)c1F (relative stereo) [Example 160, trans-5-(2-(3,4,5-Trifluorophenyl)cyclopropyl)-2,2′-bipyrimidine]		270
CO[C@H]1CCN(c2cc(C3CC3c3cnc(-c4ncccn4)nc3)cc(F)c2F)C1 (single isomer, unassigned) [Example 102]	29	
O[C@@H]1CCN(c2cc(C3CC3c3cnc(-c4ncccn4)nc3)ccc2F)C1 (single isomer, unassigned) [Example 69]		170

Compound	EC50 [1] [nM]	EC50 [2] [nM]
COc1cc(C2CC2c2cnc(-c3ncccn3)nc2)cc(N2CCCC2)c1F (single isomer, unassigned) [Example 101, trans-5-(2-(4-Fluoro-3-methoxy-5-(pyrrolidin-1-yl)phenyl)cyclopropyl)-2,2′-bipyrimidine]	800	
Fc1ccc(C2CC2c2ccnc(-c3ncccn3)n2)cc1F (single isomer, unassigned) [Example 6, trans-4-(2-(3,4-Difluorophenyl)cyclopropyl)-2,2′-bipyrimidine]	10000	
Oc1cnn(-c2cc(C3CC3c3cnc(-c4ncccn4)nc3)cc(F)c2F)c1 (single isomer, unassigned) [Example 260, trans-1-(5-(2-([2,2′-Bipyrimidin]-5-yl)cyclopropyl)-2,3-difluorophenyl)-1H-pyrazol-4-ol]	670	
COc1cc(C2CC2c2cnc(-c3ncccn3)c3ccccc23)ccc1F (single isomer, unassigned) [Example 194, trans-4-(2-(4-Fluoro-3-methoxyphenyl)cyclopropyl)-1-(pyrimidin-2-yl)isoquinoline]	49000	
COc1cc([C@@H]2C[C@H]2c2cnc(-c3cnccn3)nc2)cc(F)c1F (relative stereo) [Example 178, trans-5-(2-(3,4-Difluoro-5-methoxyphenyl)cyclopropyl)-2-(pyrazin-2-yl)pyrimidine]		460
COCCOc1cc(F)c(Cl)cc1C1CC1c1cnc(-c2ncccn2)nc1 (single isomer, unassigned) [Example 157, trans-5-(2-(5-Chloro-4-fluoro-2-(2-methoxyethoxy)phenyl)cyclopropyl)-2,2′-bipyrimidine]	49000	
Cc1cnn(-c2cc([C@@H]3C[C@H]3c3cnc(-c4ncccn4)nc3)cc(F)c2F)c1 (relative stereo) [Example 232, trans-5-(2-(3,4-Difluoro-5-(4-methyl-1H-pyrazol-1-yl)phenyl)cyclopropyl)-2,2′-bipyrimidine]		28
Fc1ccc(C2CN(c3cc([C@@H]4C[C@H]4c4cnc(-c5ncccn5)nc4)cc(F)c3F)C2)cc1F (relative stereo) [Example 214, trans-5-(2-(3-(3-(3,4-difluorophenyl)azetidin-1-yl)-4,5-difluorophenyl)cyclopropyl)-2,2′-bipyrimidine]		46
COc1cc(C2CC2c2cnc(-c3ncccn3)nc2)cc(F)c1F (single isomer, unassigned) [Example 84, trans-5-(2-(3,4-Difluoro-5-methoxyphenyl)cyclopropyl)-2,2′-bipyrimidine]	240	
COc1cc([C@@H]2C[C@H]2c2cnc(-c3ncccc3F)nc2)cc(F)c1F (relative stereo) [Example 179, trans-5-(2-(3,4-Difluoro-5-methoxyphenyl)cyclopropyl)-2-(3-fluoropyridin-2-yl)pyrimidine]		370
CN(C)c1cc(C2CC2c2cnc(-c3ncccn3)nc2)ccc1F (single isomer, unassigned) [Example 63, trans-5-(2-([2,2′-Bipyrimidin]-5-yl)cyclopropyl)-2-fluoro-N,N-dimethylaniline]	390	
COc1c(Cl)ccc(C2CC2c2cnc(-c3ncccn3)nc2)c1F (single isomer, unassigned) [Example 55, trans-5-(2-(4-Chloro-2-fluoro-3-methoxyphenyl)cyclopropyl)-2,2′-bipyrimidine]	1000	
O[C@H]1CCN(c2cc(C3CC3c3cnc(-c4ncccn4)nc3)cc(F)c2F)C1 (single isomer, unassigned) [Example 106]	85	
CC1(C)CN(c2cc(C3CC3c3cnc(-c4ncccn4)nc3)cc(F)c2F)C1 (single isomer, unassigned) [Example 138, trans-5-(2-(3-(3,3-Dimethylazetidin-1-yl)-4,5-difluorophenyl)cyclopropyl)-2,2′-bipyrimidine]	1000	
Oc1cnn(-c2cc(C3CC3c3cnc(-c4ncccn4)nc3)cc(F)c2F)c1 (single isomer, unassigned) [Example 259, trans-1-(5-(2-([2,2′-Bipyrimidin]-5-yl)cyclopropyl)-2,3-difluorophenyl)-1H-pyrazol-4-ol]	2000	
COc1cc(C2CC2c2cnc(-c3ncccn3)nc2-c2ccc3nc(C)sc3c2)ccc1F (single isomer, unassigned) [Example 141, trans-6-(5-(2-(4-Fluoro-3-methoxyphenyl)cyclopropyl)-[2,2′-bipyrimidin]-4-yl)-2-methylbenzo[d]thiazole]	1200	
COc1cc(C2CC2c2ccc(-c3ncccn3)nc2)cc(F)c1F (single isomer, unassigned) [Example 124, trans-2-(5-(2-(3,4-Difluoro-5-methoxyphenyl)cyclopropyl)pyridin-2-yl)pyrimidine]	290	
CO[C@@H]1CCN(c2cc(C3CC3c3cnc(-c4ncccn4)nc3)cc(Cl)c2F)C1 (single isomer, unassigned) [Example 111]	120	
COc1c(Cl)ccc(C2CC2c2cnc(-c3ncccn3)nc2)c1C (single isomer, unassigned) [Example 71, trans-5-(2-(4-Chloro-3-methoxy-2-methylphenyl)cyclopropyl)-2,2′-bipyrimidine]	200	
